Activity calls are given as the source filed them. The rule behind the calls is not given here.
Columns and labels:
Format in all cases: cell-based
[1] = molecular target: Protein cereblon/Polycomb protein EED (Homo sapiens, UniProt O75530+Q96SW2); assay: PROTAC activity at CRBN/EED in human K562 cells assessed as degradation of EED protein expression at 10 uM measured after 12 hrs by Western blotting analysis relative to control
[2] = molecular target: Protein cereblon/Histone-lysine N-methyltransferase EZH2 (Homo sapiens) (UniProt Q15910+Q96SW2); assay: PROTAC activity at CRBN/EZH2 in human K562 cells assessed as degradation of EZH2 protein expression at 0.1 to 10 uM incubated for 24 hrs by Western blotting analysis; details: dose 0.1-10 µM
[3] = molecular target: Protein cereblon/E3 ubiquitin-protein ligase RING2 (Homo sapiens, UniProt Q96SW2+Q99496); assay: PROTAC activity at CRBN/RING1B in human K562 cells assessed as degradation of RING1B protein expression at 10 uM measured after 12 hrs by Western blotting analysis relative to control
Chain of Protein cereblon/E3 ubiquitin-protein ligase RING2 (Q96SW2 whole entry): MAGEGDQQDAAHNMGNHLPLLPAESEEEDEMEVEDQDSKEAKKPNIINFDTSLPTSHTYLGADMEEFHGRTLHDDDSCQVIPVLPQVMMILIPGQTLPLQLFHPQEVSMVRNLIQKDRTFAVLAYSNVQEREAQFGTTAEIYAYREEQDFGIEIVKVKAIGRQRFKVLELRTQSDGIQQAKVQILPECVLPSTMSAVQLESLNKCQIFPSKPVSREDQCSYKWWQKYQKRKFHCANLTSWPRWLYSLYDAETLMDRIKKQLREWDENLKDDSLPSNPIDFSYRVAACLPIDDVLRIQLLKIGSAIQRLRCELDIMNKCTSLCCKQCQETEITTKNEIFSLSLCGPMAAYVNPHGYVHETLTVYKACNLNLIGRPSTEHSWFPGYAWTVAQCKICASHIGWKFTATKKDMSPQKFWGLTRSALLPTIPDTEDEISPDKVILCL
Chain of Protein cereblon/E3 ubiquitin-protein ligase RING2 (Q99496 2-336 partner limits assumed): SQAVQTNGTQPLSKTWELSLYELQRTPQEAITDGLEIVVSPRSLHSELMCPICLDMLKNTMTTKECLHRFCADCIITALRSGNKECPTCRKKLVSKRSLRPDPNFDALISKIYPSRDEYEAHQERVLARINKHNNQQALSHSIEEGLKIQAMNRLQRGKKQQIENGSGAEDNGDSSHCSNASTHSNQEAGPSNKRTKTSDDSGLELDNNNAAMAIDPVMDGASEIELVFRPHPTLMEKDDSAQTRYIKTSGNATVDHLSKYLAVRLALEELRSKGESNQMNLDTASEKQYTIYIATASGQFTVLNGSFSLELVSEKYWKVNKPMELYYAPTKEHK

Chain of Protein cereblon/Polycomb protein EED (O75530 2-441 limits assumed): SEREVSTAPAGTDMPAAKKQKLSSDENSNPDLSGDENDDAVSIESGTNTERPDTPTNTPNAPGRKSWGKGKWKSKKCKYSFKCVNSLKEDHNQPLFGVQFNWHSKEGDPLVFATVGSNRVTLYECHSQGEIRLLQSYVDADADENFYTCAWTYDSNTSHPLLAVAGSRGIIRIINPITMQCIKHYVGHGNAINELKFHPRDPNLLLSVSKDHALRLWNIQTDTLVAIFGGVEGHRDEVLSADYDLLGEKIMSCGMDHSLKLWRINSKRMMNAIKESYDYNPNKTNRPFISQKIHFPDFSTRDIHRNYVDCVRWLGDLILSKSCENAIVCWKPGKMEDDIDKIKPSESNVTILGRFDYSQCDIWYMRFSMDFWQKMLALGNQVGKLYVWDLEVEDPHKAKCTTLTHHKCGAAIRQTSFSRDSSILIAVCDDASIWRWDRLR
Chain of Protein cereblon/Polycomb protein EED (Q96SW2 whole entry partner): as the sequence (Q96SW2 whole entry) above
Chain of Protein cereblon/Histone-lysine N-methyltransferase EZH2 (Homo sapiens) (Q15910 whole entry, looked up): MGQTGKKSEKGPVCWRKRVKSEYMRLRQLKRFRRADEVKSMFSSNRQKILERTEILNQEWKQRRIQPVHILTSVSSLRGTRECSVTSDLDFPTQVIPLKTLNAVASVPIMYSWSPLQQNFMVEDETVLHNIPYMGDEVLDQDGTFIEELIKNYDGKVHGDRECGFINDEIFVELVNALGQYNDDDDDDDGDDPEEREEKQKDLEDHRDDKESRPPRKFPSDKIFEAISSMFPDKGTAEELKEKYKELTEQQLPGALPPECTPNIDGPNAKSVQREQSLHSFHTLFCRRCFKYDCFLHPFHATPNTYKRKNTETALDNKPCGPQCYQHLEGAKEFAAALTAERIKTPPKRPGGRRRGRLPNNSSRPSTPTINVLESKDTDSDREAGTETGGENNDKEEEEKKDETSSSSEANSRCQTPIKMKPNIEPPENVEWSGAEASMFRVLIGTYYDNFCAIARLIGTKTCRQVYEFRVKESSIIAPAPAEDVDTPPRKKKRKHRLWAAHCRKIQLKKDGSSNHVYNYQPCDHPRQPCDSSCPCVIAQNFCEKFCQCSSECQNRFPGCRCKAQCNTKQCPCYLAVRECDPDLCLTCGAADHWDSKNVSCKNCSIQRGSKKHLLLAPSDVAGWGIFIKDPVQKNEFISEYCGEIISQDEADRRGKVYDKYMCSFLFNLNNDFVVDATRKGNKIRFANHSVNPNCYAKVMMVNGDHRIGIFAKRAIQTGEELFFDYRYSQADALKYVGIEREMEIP
Chain of Protein cereblon/Histone-lysine N-methyltransferase EZH2 (Homo sapiens) (Q96SW2 whole entry, looked up): as the sequence (Q96SW2 whole entry) above

- Activity [1]: 50%
- Activity [2]: Active
- Activity [3]: 100%
SMILES: O=C(CNc1cccc2c1C(=O)N(C1CCC(=O)NC1=O)C2=O)NCCCCN1CCN(c2ccc(-c3cnc(NCc4ccco4)n4cnnc34)cc2)CC1 (stereo not drawn)

Source: ChEMBL document CHEMBL5543147, “Discovery and Characterization of a Novel Cereblon-Recruiting PRC1 Bridged PROTAC Degrader” (J Med Chem, 2024)
